In brackets after ≈: the same amount, converted by molar mass.
Key:
[1] = system: C. albicans (ATCC 24433); assay: Antifungal broth microdilution assay (EUCAST EDef 7.1), C. albicans; type: cell-based; conditions: for MIC50: Candida albicans, ATCC24433, read-out: Minimum inhibitory concentration (MIC50)
Procedure: (§1) The anticandidal effect of compounds 6a–6s were screened in accord with the EUCAST definitive (EDef 7.1) method. Ketoconazole was employed as a reference drug. The in vitro growth inhibitory activity of the compounds were tested against C. albicans (ATCC 24433), C. glabrata (ATCC 90030), C. krusei (ATCC 6258) and C. parapsilosis (ATCC 22019). The results were obtained as MIC values and MIC readings were accomplished twice for each chemical agent. After incubating overnight at 37 °C, the fungal strains were sustained in Roswell Park Memorial Institute (RPMI) medium.
(§2) Adjustment of the inoculum density to a 0.5 McFarland turbidity standard was carried out by using a spectrophotometer. The resulting inoculum suspension contained 0.5 × 10^5–2.5 × 10^5 cfu/mL for fungi. The two-fold serial dilutions technique were applied and the test was carried out in Mueller–Hinton broth and RPMI at pH7 and the test was performed for medium at pH7. The last well on the microplates containing only inoculated broth and the last well with no growth of microorganism represent controls and the MIC50 in μg/mL, respectively. DMSO was used as solvent. Further dilutions of the compounds and standard drugs in the RPMI medium were prepared in the required quantities at contcentrations of 800, 400, 200, 100, 50, 25, 12.5, 6.25, 3.125, 1.5625 and 0.78 µg/mL. After a 24 h incubation of the completed plates, resazurin (20 µg/mL) was added into each well in order to observe the fungal growth. […] Each experiment in antifungal assay was performed twice.

[2] = system: C. krusei (ATCC 6258); assay: Antifungal broth microdilution assay (EUCAST EDef 7.1), C. krusei; type: cell-based; conditions: for MIC50: Pichia kudriavzevii, ATCC6258, read-out: Minimum inhibitory concentration (MIC50)
Procedure: as §1, §2

[3] = system: C. parapsilosis (ATCC 22019); assay: Antifungal broth microdilution assay (EUCAST EDef 7.1), C. parapsilosis; type: cell-based; conditions: C. parapsilopsis; for MIC50: Lodderomyces parapsilosis, ATCC22019, read-out: Minimum inhibitory concentration (MIC50)
Procedure: as §1, §2

[4] = system: C. glabrata (ATCC 90030); assay: Antifungal broth microdilution assay (EUCAST EDef 7.1), C. glabrata; type: cell-based; conditions: for MIC50: Nakaseomyces glabratus, ATCC90030, read-out: Minimum inhibitory concentration (MIC50)
Procedure: as §1, §2

[5] = system: ergosterol biosynthesis in C. krusei; assay: Ergosterol level quantification by LC-MS-MS in C. krusei; type: cell-based; conditions: Pichia kudriavzevii, mean ± SD
Procedure: The ergosterol level was determined using the method described by Breivik and Owades with adjustments according to [2]. C. krusei was inoculated with Sabouraud dextrose broth (Difco) supplemented with compounds 6e, 6k, 6r and the positive control, ketoconazole. The cultures were incubated, and the stationary-phase cells were harvested. After the addition of 25% alcoholic potassium hydroxide solution, cell suspensions were separated and incubated. Sterols were extracted by sterile distilled water and chloroform, and then the extract was injected into the LC-MS-MS system (Shimadzu LCMS 8040, Kyoto, Japan). The ergosterol quantity in the negative control samples was considered as 100%. All concentrations were analysed in quadruplicate, and the results were presented as mean ± standard deviation (SD).

| MIC50 [1] [µg/mL] | MIC50 [2] [µg/mL] | melting point [°C] | MIC50 [3] [µg/mL] | MIC50 [4] [µg/mL] | Minimum inhibitory concentration (MIC50) [1] [µg/mL] | Minimum inhibitory concentration (MIC50) [2] [µg/mL] | Minimum inhibitory concentration (MIC50) [3] [µg/mL] | Minimum inhibitory concentration (MIC50) [4] [µg/mL] | SMILES | inhibition at 0.78 µg/mL ([5]; 0.78 µg/mL) [%] | inhibition at 1.56 µg/mL ([5]; 1.56 µg/mL) [%] | inhibition at 3.12 µg/mL ([5]; 3.12 µg/mL) [%] |
| --- | --- | --- | --- | --- | --- | --- | --- | --- | --- | --- | --- | --- |
| 25 (≈ 54.2 µM) | 50 (≈ 108 µM) | 141 | 50 (≈ 108 µM) | 50 (≈ 108 µM) |  |  |  |  | O=C(CSc1nnc(CCSc2nnc(NC3CCCCC3)s2)o1)c1ccccc1 [Compound 6a, 2-[[5-[2-[[5-(Cyclohexylamino)-1,3,4-thiadiazol-2-yl]thio]ethyl]-1,3,4-oxadiazol-2-yl]thio]-1-phenylethan-1-one] |  |  |  |
| 50 (≈ 105 µM) | 100 (≈ 210 µM) | 136 | 50 (≈ 105 µM) | 50 (≈ 105 µM) |  |  |  |  | Cc1ccc(C(=O)CSc2nnc(CCSc3nnc(NC4CCCCC4)s3)o2)cc1 [Compound 6b, 2-[[5-[2-[[5-(Cyclohexylamino)-1,3,4-thiadiazol-2-yl]thio]ethyl]-1,3,4-oxadiazol-2-yl]thio]-1-(4-methylphenyl)ethan-1-one] |  |  |  |
|  |  |  |  |  | 50 (≈ 105 µM) | 50 (≈ 105 µM) | 50 (≈ 105 µM) | 50 (≈ 105 µM) | O=C(CSc1nnc(CCSc2nnc(NC3CCCCC3)s2)o1)Nc1ccccc1 [Compound 6g, 2-[[5-[2-[[5-(Cyclohexylamino)-1,3,4-thiadiazol-2-yl]thio]ethyl]-1,3,4-oxadiazol-2-yl]thio]-N-phenyl acetamide] |  |  |  |
| 25 (≈ 50.9 µM) | 100 (≈ 204 µM) |  | 50 (≈ 102 µM) | 100 (≈ 204 µM) |  |  |  |  | Cc1ccc(NC(=O)CSc2nnc(CCSc3nnc(NC4CCCCC4)s3)o2)cc1 [Compound 6h, 2-[[5-[2-[[5-(Cyclohexylamino)-1,3,4-thiadiazol-2-yl]thio]ethyl]-1,3,4-oxadiazol-2-yl]thio]-N-(4-methylphenyl)acetamide] |  |  |  |
| 25 (≈ 49.3 µM) | 100 (≈ 197 µM) |  | 50 (≈ 98.7 µM) | 100 (≈ 197 µM) |  |  |  |  | COc1ccc(NC(=O)CSc2nnc(CCSc3nnc(NC4CCCCC4)s3)o2)cc1 [Compound 6i, 2-[[5-[2-[[5-(Cyclohexylamino)-1,3,4-thiadiazol-2-yl]thio]ethyl]-1,3,4-oxadiazol-2-yl]thio]-N-(4-methoxyphenyl)acetamide] |  |  |  |
| 25 (≈ 48.9 µM) | 50 (≈ 97.8 µM) |  | 50 (≈ 97.8 µM) | 50 (≈ 97.8 µM) |  |  |  |  | O=C(CSc1nnc(CCSc2nnc(NC3CCCCC3)s2)o1)Nc1ccc(Cl)cc1 [Compound 6j, 2-[[5-[2-[[5-(Cyclohexylamino)-1,3,4-thiadiazol-2-yl]thio]ethyl]-1,3,4-oxadiazol-2-yl]thio]-N-(4-chlorophenyl)acetamide] |  |  |  |
| 100 (≈ 202 µM) | 50 (≈ 101 µM) |  | 25 (≈ 50.5 µM) | 50 (≈ 101 µM) |  |  |  |  | O=C(CSc1nnc(CCSc2nnc(NC3CCCCC3)s2)o1)Nc1ccc(F)cc1 [Compound 6l, 2-[[5-[2-[[5-(Cyclohexylamino)-1,3,4-thiadiazol-2-yl]thio]ethyl]-1,3,4-oxadiazol-2-yl]thio]-N-(4-fluorophenyl)acetamide] |  |  |  |
| 100 (≈ 177 µM) | 25 (≈ 44.3 µM) |  | 50 (≈ 88.7 µM) | 25 (≈ 44.3 µM) |  |  |  |  | COc1ccc2nc(NC(=O)CSc3nnc(CCSc4nnc(NC5CCCCC5)s4)o3)sc2c1 [Compound 6o, 2-[[5-[2-[[5-(Cyclohexylamino)-1,3,4-thiadiazol-2-yl]thio]ethyl]-1,3,4-oxadiazol-2-yl]thio]-N-(6-methoxybenzothiazol-2-yl)acetamide] |  |  |  |
| 50 (≈ 90.6 µM) | 50 (≈ 90.6 µM) |  | 50 (≈ 90.6 µM) | 6.25 (≈ 11.3 µM) |  |  |  |  | O=C(CSc1nnc(CCSc2nnc(NC3CCCCC3)s2)o1)Nc1nc2ccc(F)cc2s1 [Compound 6s, 2-[[5-[2-[[5-(Cyclohexylamino)-1,3,4-thiadiazol-2-yl]thio]ethyl]-1,3,4-oxadiazol-2-yl]thio]-N-(6-fluorobenzothiazol-2-yl)acetamide] |  |  |  |
| 0.78 (≈ 1.47 µM) | 1.56 (≈ 2.94 µM) |  | 1.56 (≈ 2.94 µM) | 1.56 (≈ 2.94 µM) |  |  |  |  | CC(=O)N1CCN(c2ccc(OCC3COC(Cn4ccnc4)(c4ccc(Cl)cc4Cl)O3)cc2)CC1 (stereo not drawn) [Ketoconazole, reference compound] | 61 ± 2.94 | 73.1 ± 4.16 | 84.6 ± 3.01 |

Source: PMC6150172, “Synthesis of Oxadiazole-Thiadiazole Hybrids and Their Anticandidal Activity” (Molecules : A Journal of Synthetic Chemistry and Natural …, 2017)
